In patent US7691900B2, “Tocopherol derivatives with a long hydroxylated chain, which can be used as neurotrophics” (AxoGlia Therapeutics S.A., priority 2003, dated 2010):

Test system: microglial cells activated by LPS
Experiment: Release of TNF-α (ELISA) in LPS-activated microglial cell cultures
Format: cell-based
Conditions: microglia treated with 0.01 μg/ml LPS; 24 h activation; tested at 10^-5, 10^-6, 10^-7 M
Protocol: 2. Measurement of the Release of TNF-α
The expression of the TNF-a represents a parameter for microglial activation often analyzed in the literature. […] A 24 hrs activation by LPS leads to a high increase in the level of TNF-α expression detectable by the ELISA test.
In the experiments, the concentrations of TNF-α in the microglial cell cultures, treated with 0.01 μg/ml of LPS in the presence of TFA-10, TFA-12, TFA-14, TFA-16 and vitamin E, at concentrations of 10^−5, 10^−6 and 10^−7 M, were measured by the inventors after 24 hours activation.

vitamin E
activity on TNF-α production, in words: no activity
